# Data from publication PMC10451629, “Evaluation of the Effects of Heteroaryl Ethylene Molecules in Combination with Antibiotics: A Preliminary Study on Control Strains” (Antibiotics, 2023).
# Where “and” joins values, the source holds several entries; their conditions need not be identical. Equal entries are not always repeated. Where two headings read alike, the source gives them in different places.
# What was measured:
# all tested strains = assay: Broth microdilution MIC, summary over all tested strains; format: cell-based; conditions: for MIC reduction in combination with PB4: all tested bacterial strains, antibiotic + PB4
# A. baumannii ATCC 17978 = assay: Broth microdilution MIC; format: cell-based; conditions: Acinetobacter baumannii, ATCC17978, substance alone
# S. enterica ATCC 14028 = assay: Broth microdilution MIC; format: cell-based; conditions: Salmonella enterica, ATCC14028, substance alone
# S. aureus ATCC 12598 = assay: Broth microdilution MIC; format: cell-based, Staphylococcus aureus; conditions: Staphylococcus aureus, ATCC12598, S. aureus ATCC 12598; substance alone; read-out: MIC
# P. aeruginosa ATCC 27853 = assay: Broth microdilution MIC; format: cell-based, Pseudomonas aeruginosa; conditions: substance alone
# [1] = tested on: S. aureus ATCC BAA-1556 USA300; assay: Broth microdilution MIC; format: cell-based, Staphylococcus aureus; conditions: Staphylococcus aureus, S. aureus ATCC BAA-1556 USA300; substance alone
# S. aureus ATCC 29213 = assay: Broth microdilution MIC; format: cell-based; conditions: Staphylococcus aureus, ATCC29213, S. aureus ATCC 29213; substance alone; read-out: MIC
# E. coli ATCC 25922 = assay: Broth microdilution MIC; format: cell-based; conditions: Escherichia coli, ATCC25922, substance alone, read-out: MIC
# [2] = tested on: K. pneumoniae ATCC 700603; assay: Broth microdilution MIC; format: cell-based, Klebsiella pneumoniae; conditions: for MIC: substance alone
# E. faecalis ATCC 29212 = assay: Broth microdilution MIC; format: cell-based, Enterococcus faecalis; conditions: for MIC: substance alone
# Gram-positive strains = assay: Broth microdilution MIC, summary over Gram-positive strains; format: cell-based
# [3] = tested on: CaCo2 colon-rectal cancer cell line; parameters: method as in in-house dataset; Log(IC50) 48h: unit not given here; conditions: in-house dataset previously tested by the authors' groups, ref in-house dataset, cited from earlier work
# [4] = tested on: CaCo-2 (ATCC HTB-37) colon–rectal cancer cell line; assay: MTT cytotoxicity assay on CaCo-2 cells; format: cell-based, human; conditions: for IC50: Homo sapiens, CaCo-2 cell line, MTT; for Percentage of cell growth, antibiotic / Percentage of cell growth, antibiotic + PB4 0.2 µM: CaCo-2
# Procedure: To fully assess the biological activity of the new molecules, they were tested at different concentrations on the CaCo-2 (ATCC HTB-37) colon–rectal cancer cell line. These human cancer cells were exposed to compound solutions ranging in concentration from 100 µM to 0.01 µM. As a reference compound for these assays, we used 5-Fluorouracil (5-FU), a pyrimidine analog from the antimetabolite family.
# The MTT assay was also performed for the selected antibiotics to evaluate the effect of their combined treatment with PB4.
# To evaluate the effect of the heteroaryl ethylene compounds and the antibiotics, an MTT ([3-(4,5-dimethylthiazol-2-yl)-2,5-diphenyltetrazolium bromide]) assay was performed as previously described. […] Both concentrations were also tested in combination with PB4 0.2 µM. All antibiotics were provided by Thermo Scientific^TM Oxoid^TM, Basingstoke, UK. Twenty-four hours after plating, the cells were treated with 20 μL of each solution. Untreated cells were used as controls. […] The IC50 values were calculated by nonlinear regression analysis using GraphPad Prism 6.0 software.
# [5] = Pseudomonas aeruginosa, ATCC27853, P. aeruginosa ATCC 27853, read-out: MIC
# [6] = Caco-2, 24 h, 24 h of treatment, read-out: IC50 at 24 h
# [7] = Caco-2, 48 h, 48 h of treatment, read-out: IC50 at 48 h
# [8] = Klebsiella pneumoniae, ATCC700603, K. pneumoniae ATCC 700603, read-out: MIC
# [9] = Enterococcus faecalis, ATCC29212, E. faecalis ATCC 29212, read-out: MIC
SMILES,MIC reduction in combination with PB4 (all tested strains),MIC (A. baumannii ATCC 17978),MIC (S. enterica ATCC 14028),MIC (S. aureus ATCC 12598),MIC [1],MIC (S. aureus ATCC 29213),MIC (E. coli ATCC 25922),MIC (P. aeruginosa ATCC 27853; [5]),"IC50 [4, 6] [nM]","IC50 [4, 7] [nM]","MIC [2, 8]",MIC (E. faecalis ATCC 29212; [9]),also measured
"CC1(C)S[C@@H]2[C@H](NC(=O)[C@H](N)c3ccccc3)C(=O)N2[C@H]1C(=O)O [Ampicillin, ampicillin, reference compound]",no significant MIC reductions,32 µg/mL,2 µg/mL,0.125 µg/mL,8 µg/mL,2 µg/mL,8 µg/mL,–,–,–,–,–,"MIC (P. aeruginosa ATCC 27853; P. aeruginosa ATCC 27853): 2 mg/L; MIC (P. aeruginosa ATCC 27853; P. aeruginosa ATCC 27853, listed as AMP): >128 mg/L; MIC of antibiotic in combination with PB4 ([2]; K. pneumoniae ATCC 700603, sub-MIC PB4): 2 µg/mL; MIC ([2]; K. pneumoniae ATCC 700603): 8 mg/L; MIC ([2]; K. pneumoniae ATCC 700603, listed as AMP): >128 mg/L; MIC of antibiotic in combination with PB4 (E. faecalis ATCC 29212; E. faecalis ATCC 29212, PB4 at fixed 0.125 μg/mL (0.24 μM), a quarter of an MIC value): 1 µg/mL; MIC (E. faecalis ATCC 29212; E. faecalis ATCC 29212): 4 mg/L; MIC (E. faecalis ATCC 29212; E. faecalis ATCC 29212, listed as AMP): 0.25 mg/L"
COc1ccc(/C=C/c2cccc(/C=C/c3ccc(OC)cc3)[n+]2C)cc1 [BCM6],–,64 µg/mL and 132 µM,> 128 µg/mL and > 264 µM,4 µg/mL and 8.23 µM,8 µg/mL and 16.4 µM,4 µg/mL and 8.2 µM,128 µg/mL and 264 µM,> 128 µg/mL and > 264 µM,160,180,> 128 µg/mL and > 264 µM,32 µg/mL and 65.9 µM,MIC (Gram-positive strains): 4 to 8 µg/mL; IC50 ([3]; 48h): 12300 nM; Log(IC50) 48h [3]: 1.09
"CC[C@H]1OC(=O)[C@H](C)[C@@H](O[C@H]2C[C@@](C)(OC)[C@@H](O)[C@H](C)O2)[C@H](C)[C@@H](O[C@@H]2O[C@H](C)C[C@H](N(C)C)[C@H]2O)[C@](C)(O)C[C@@H](C)C(=O)[C@H](C)[C@@H](O)[C@]1(C)O [Erythromycin, erythromycin]",no significant MIC reductions,–,–,0.5 µg/mL,32 µg/mL,0.5 µg/mL,–,–,–,–,–,2 mg/L,"Percentage of cell growth, antibiotic ([4]; antibiotic alone at MIC for E. faecalis ATCC 29212, 24 h): 148.2%; Percentage of cell growth, antibiotic ([4]; antibiotic alone at MIC for E. faecalis ATCC 29212, 48 h): 269.0%; Percentage of cell growth, antibiotic ([4]; antibiotic alone at sub-MIC (half-MIC), 24 h): 159.5%; Percentage of cell growth, antibiotic ([4]; antibiotic alone at sub-MIC (half-MIC), 48 h): 280.6%; Percentage of cell growth, antibiotic + PB4 0.2 µM ([4]; antibiotic at MIC + PB4 0.2 µM, 24 h): 133.6%; Percentage of cell growth, antibiotic + PB4 0.2 µM ([4]; antibiotic at MIC + PB4 0.2 µM, 48 h): 117.5%; Percentage of cell growth, antibiotic + PB4 0.2 µM ([4]; antibiotic at sub-MIC + PB4 0.2 µM, 24 h): 124.9%; Percentage of cell growth, antibiotic + PB4 0.2 µM ([4]; antibiotic at sub-MIC + PB4 0.2 µM, 48 h): 155.8%"
C[n+]1c(/C=C/c2ccc(N(c3ccccc3)c3ccccc3)cc2)cccc1/C=C/c1ccc(N(c2ccccc2)c2ccccc2)cc1 [GC-VI-10],–,> 128 µg/mL and > 169 µM,> 128 µg/mL and > 169 µM,64 µg/mL and 84.4 µM,128 µg/mL and 169 µM,128 µg/mL and 169 µM,> 128 µg/mL and > 169 µM,> 128 µg/mL and > 169 µM,1350,990,> 128 µg/mL and > 169 µM,4 µg/mL and 5.2 µM,MIC levels over all tested strains (all tested strains; summary in text over all tested strains): high MIC levels
